Measurements taken from ChEMBL document CHEMBL2073969, “Increased renal expression of bilirubin glucuronide transporters in a rat model of obstructive jaundice” (Am J Physiol Gastrointest Liver Physiol, 2002).

Biological target: ATP-binding cassette sub-family C member 2 (Homo sapiens, UniProt Q92887)
Experiment: TP_TRANSPORTER: RT-PCR in renal proximal tubular epithelial cells
Assay type: functional, tissue-based, Kidney
Settings: epithelial cell

Sequence of ATP-binding cassette sub-family C member 2 (Q92887 whole entry): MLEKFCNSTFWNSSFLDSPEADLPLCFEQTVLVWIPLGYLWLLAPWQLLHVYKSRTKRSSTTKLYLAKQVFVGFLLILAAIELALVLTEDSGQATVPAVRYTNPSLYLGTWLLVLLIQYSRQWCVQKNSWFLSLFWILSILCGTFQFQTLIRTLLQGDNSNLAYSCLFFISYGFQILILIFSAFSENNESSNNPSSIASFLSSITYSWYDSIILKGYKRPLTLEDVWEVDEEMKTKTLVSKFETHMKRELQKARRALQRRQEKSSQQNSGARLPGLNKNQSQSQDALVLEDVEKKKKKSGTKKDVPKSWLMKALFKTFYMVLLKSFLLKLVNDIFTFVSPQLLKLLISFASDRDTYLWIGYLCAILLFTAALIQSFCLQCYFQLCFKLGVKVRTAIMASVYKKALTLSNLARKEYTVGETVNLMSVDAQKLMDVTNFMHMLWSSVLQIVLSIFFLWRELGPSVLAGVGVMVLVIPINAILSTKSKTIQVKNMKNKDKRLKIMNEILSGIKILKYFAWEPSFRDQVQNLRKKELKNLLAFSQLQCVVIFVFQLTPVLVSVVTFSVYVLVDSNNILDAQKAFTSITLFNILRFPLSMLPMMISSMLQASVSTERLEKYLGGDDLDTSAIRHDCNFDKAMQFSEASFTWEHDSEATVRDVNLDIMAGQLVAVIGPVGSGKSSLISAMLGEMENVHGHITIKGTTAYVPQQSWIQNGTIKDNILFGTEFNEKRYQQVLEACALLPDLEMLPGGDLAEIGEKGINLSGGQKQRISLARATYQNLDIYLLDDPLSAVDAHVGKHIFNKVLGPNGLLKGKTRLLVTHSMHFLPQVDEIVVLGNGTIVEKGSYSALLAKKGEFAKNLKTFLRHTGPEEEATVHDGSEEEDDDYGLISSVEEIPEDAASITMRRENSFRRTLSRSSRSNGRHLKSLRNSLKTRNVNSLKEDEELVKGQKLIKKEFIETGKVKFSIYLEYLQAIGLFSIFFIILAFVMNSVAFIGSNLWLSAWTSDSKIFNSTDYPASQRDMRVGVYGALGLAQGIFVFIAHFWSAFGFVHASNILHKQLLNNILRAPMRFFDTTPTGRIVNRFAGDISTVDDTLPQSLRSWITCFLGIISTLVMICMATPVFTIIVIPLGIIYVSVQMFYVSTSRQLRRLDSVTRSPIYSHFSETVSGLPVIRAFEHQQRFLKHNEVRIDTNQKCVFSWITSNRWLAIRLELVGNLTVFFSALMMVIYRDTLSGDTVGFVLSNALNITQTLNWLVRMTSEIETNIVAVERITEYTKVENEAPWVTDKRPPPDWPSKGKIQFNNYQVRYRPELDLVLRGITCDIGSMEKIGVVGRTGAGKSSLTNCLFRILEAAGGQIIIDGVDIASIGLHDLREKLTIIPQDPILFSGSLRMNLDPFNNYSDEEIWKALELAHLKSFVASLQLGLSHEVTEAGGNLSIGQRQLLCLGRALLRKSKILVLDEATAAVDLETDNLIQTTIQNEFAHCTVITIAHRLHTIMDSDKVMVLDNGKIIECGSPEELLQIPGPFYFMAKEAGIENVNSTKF

Structure (SMILES) | Activity
C=CC1=C(C)/C(=C/c2[nH]c(Cc3[nH]c(/C=C4\NC(=O)C(C)=C4C=C)c(C)c3CCC(=O)NCCS(=O)(=O)O)c(CCC(=O)NCCS(=O)(=O)O)c2C)NC1=O [BILIRUBIN DITAURATE] | inducer [+]
C[C@H](CCC(=O)NCCS(=O)(=O)O)[C@H]1CC[C@H]2[C@@H]3CC[C@@H]4C[C@H](O)CC[C@]4(C)[C@H]3CC[C@]12C [TAUROLITHOCHOLIC ACID] | inducer [+]
